Experimental data as given in US20110092544A1, “FUNGICIDAL PYRIDINES” (E.I. DU PONT DE nemours and company, priority 2008, published 2011).

Tests used:
Type in all cases: in vivo
Alternaria solani = experiment: Test E: tomato early blight, preventive spray on tomato seedlings, visual disease rating; conditions: for pest or weed control at 200 ppm: Alternaria solani, 168 h
Method in brief: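 Seedlings sprayed to run-off with compound in acetone/water plus 250 ppm Trem 014 (200 ppm ≈ 500 g/ha), inoculated with spores next day. Held 48 h saturated at 27 °C, then 5 days at 20 °C; visual rating 0–100% disease control relative to controls.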

Septoria tritici = experiment: Test C: wheat leaf blotch, preventive spray on wheat seedlings, visual disease rating; conditions: for pest or weed control at 200 ppm: Zymoseptoria tritici, 504 h
Method in brief: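 Wheat seedlings sprayed to run-off with compound in acetone/water plus 250 ppm surfactant at 200 ppm (≈500 g/ha), or 40 ppm where marked; inoculated with Septoria tritici next day. Held saturated at 20 °C for 48 h, then 19 days at 20 °C; disease control rated visually 0–100 versus controls.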

Plasmopara viticola = experiment: Test H: grape downy mildew, spray after inoculation of grape seedlings, visual disease rating; conditions: for pest or weed control at 200 ppm: Plasmopara viticola, 192 h
Source text: (§1) General protocol for preparing test suspensions for Tests A-H: The test compounds were first dissolved in acetone in an amount equal to 3% of the final volume and then suspended at the desired concentration (in ppm) in acetone and purified water (50/50 mix) containing 250 ppm of the surfactant Trem® 014 (polyhydric alcohol esters). The resulting test suspensions were then used in tests A-H. Spraying a 200 ppm test suspension to the point of run-off on the test plants was the equivalent of a rate of 500 g/ha.
Grape seedlings were inoculated with a spore suspension of Plasmopara viticola (the causal agent of grape downy mildew) and incubated in a saturated atmosphere at 20° C. for 24 h. After a short drying period, the test suspension was sprayed to the point of run-off on the grape seedlings, and then moved to a growth chamber at 20° C. for 6 days, after which time the test units were placed back into a saturated atmosphere at 20° C. for 24 h. Upon removal, disease ratings were visually made.
(§2) Results for Tests A-H are given in Table A. In the table, a rating of 100 indicates 100% disease control and a rating of 0 indicates no disease control (relative to the controls). A dash (-) indicates no test results. All results are for compounds tested at 200 ppm except where the compound number is followed by “*” which indicates the compound was tested at 40 ppm.

Botrytis cinerea = experiment: Test F: tomato botrytis, preventive spray on tomato seedlings, visual disease rating; conditions: for pest or weed control at 200 ppm: Botrytis cinerea, 120 h
Method in brief: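 Tomato seedlings sprayed to run-off with compound suspended in acetone/water (50/50) plus 250 ppm Trem 014, at 200 ppm (≈500 g/ha) or 40 ppm where marked. Inoculated next day with B. cinerea spores, 48 h saturated atmosphere at 20 °C, then 3 days at 24 °C. Visual rating, 0–100% disease control relative to controls.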

Septoria nodorum = experiment: Test D: wheat glume blotch, preventive spray on wheat seedlings, visual disease rating; conditions: for pest or weed control at 200 ppm: Parastagonospora nodorum, 216 h
Method in brief: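 Compounds in 3% acetone, then 50/50 acetone–water with 250 ppm Trem 014, sprayed to run-off at 200 ppm (500 g/ha; some at 40 ppm) one day before spore inoculation. Held 48 h saturated at 20 °C, then 7 days at 20 °C; visual rating as % disease control vs untreated (0–100).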

Rhizoctonia oryzae = experiment: Test G: turf brown patch, preventive spray on creeping bent grass seedlings, visual disease rating; conditions: for pest or weed control at 200 ppm: Waitea circinata, in Agrostis stolonifera, 120 h
Source text: as §1
The test suspension was sprayed to the point of run-off on creeping bent grass seedlings. The following day the seedlings were inoculated with a spore suspension of Rhizoctonia oryzae (the causal agent of turf brown patch) and incubated in a saturated atmosphere at 27° C. for 48 h, and then moved to a growth chamber at 27° C. for 3 days, after which time disease ratings were visually made.
as §2

[1] = system: Erysiphe graminis f. sp. tritici; experiment: Test A: wheat powdery mildew, preventive spray on wheat seedlings, visual disease rating; conditions: for pest or weed control at 200 ppm: Blumeria graminis, 192 h
Method in brief: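 Acetone/water (50/50) suspension with 250 ppm surfactant sprayed to run-off on wheat seedlings (200 ppm ≈ 500 g/ha); inoculated next day with E. graminis spore dust. Incubated 8 days at 20° C, then visually rated 0–100% disease control versus untreated controls; tests at 200 ppm or 40 ppm.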

[2] = system: Puccinia recondite f. sp. tritici; experiment: Test B: wheat leaf rust, preventive spray on wheat seedlings, visual disease rating; conditions: for pest or weed control at 200 ppm: 192 h
Method in brief: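 Wheat seedlings were sprayed to run-off with compound suspension, 200 ppm (≈500 g/ha) or 40 ppm where marked, containing surfactant in acetone/water. Inoculation with Puccinia recondita spores followed one day later, then 24 h in saturated humidity at 20° C and 7 days at 20° C. Disease control was rated visually, 0–100% versus controls.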

[3] = 200 ppm, 100 = 100% disease control, 0 = no control
[4] = 40 ppm (compound number followed by *)

SMILES	Test E rating (% disease control) (Alternaria solani; [3]) [%]	Test C rating (% disease control) (Septoria tritici; [3]) [%]	Test H rating (% disease control) (Plasmopara viticola; [3]) [%]	Test F rating (% disease control) (Botrytis cinerea; [3]) [%]	Test D rating (% disease control) (Septoria nodorum; [3]) [%]	Test G rating (% disease control) (Rhizoctonia oryzae; [3]) [%]	Test A rating (% disease control) [1, 3] [%]	Test B rating (% disease control) [2, 3] [%]	other results
CCOC(=O)c1cnc(C)c(-c2ccccc2)c1-c1cc(F)cc(F)c1 [Compound 8]	0	0	17	0	0	0	98	0	–
CNC(=O)c1cnc(C)c(-c2ccccc2)c1-c1cc(OC)cc(OC)c1 [Compound 9]	99	86	0	37	0	0	94	0	–
COc1cc(OC)cc(-c2c(C(=O)N(C)C)cnc(C)c2-c2ccccc2)c1 [Compound 10]	8	33	0	80	0	0	96	0	–
C=C(C)c1cnc(C)c(-c2ccc(F)cc2)c1-c1cc(OC)cc(OC)c1 [Compound 16, 4-(3,5-dimethoxyphenyl)-3-(4-fluorophenyl)-2-methyl-5-(1-methylethenyl)pyridine]	–	–	–	–	–	–	–	–	pest or weed control at 200 ppm (Alternaria solani; [3]): 99%; pest or weed control at 200 ppm (Septoria tritici; [3]): 100%; pest or weed control at 200 ppm (Plasmopara viticola; [3]): 0%; pest or weed control at 200 ppm (Botrytis cinerea; [3]): 99%; pest or weed control at 200 ppm (Septoria nodorum; [3]): 73%; pest or weed control at 200 ppm (Rhizoctonia oryzae; [3]): 99%; pest or weed control at 200 ppm [1, 3]: 99%; pest or weed control at 200 ppm [2, 3]: 100%
COc1cc(OC)cc(-c2c(C(C)=O)cnc(C)c2-c2ccccc2F)c1 [Compound 17]	46	100	0	99	0	60	96	98	–
COc1cc(OC)cc(-c2c(C(C)C)cnc(C)c2-c2ccc(F)cc2)c1 [Compound 19, 4-(3,5-dimethoxyphenyl)-3-(4-fluorophenyl)-2-methyl-5-(1-methylethyl)pyridine]	–	–	–	–	–	–	–	–	pest or weed control at 200 ppm (Alternaria solani; [3]): 99%; pest or weed control at 200 ppm (Septoria tritici; [3]): 100%; pest or weed control at 200 ppm (Plasmopara viticola; [3]): 0%; pest or weed control at 200 ppm (Botrytis cinerea; [3]): 99%; pest or weed control at 200 ppm (Septoria nodorum; [3]): 0%; pest or weed control at 200 ppm (Rhizoctonia oryzae; [3]): 99%; pest or weed control at 200 ppm [1, 3]: 99%; pest or weed control at 200 ppm [2, 3]: 99%
CCOC(=O)c1cnc(C)c(-c2ccccc2F)c1-c1cc(OC)cc(OC)c1 [Compound 20]	0	100	53	99	0	0	98	90	–
COc1cc(OC)cc(-c2c(-c3ccccc3)c(C)nc(C)c2-c2ccc(F)cc2)c1 [Compound 22]	0	95	0	99	0	0	78	55	–
COc1cc(OC)cc(-c2c(-c3ccccc3)c(C)nc(C)c2-c2ccccc2F)c1 [Compound 23]	0	83	0	99	0	0	62	80	–
COc1cc(OC)cc(-c2c(-c3ccccc3)c(C)[n+]([O-])c(C)c2-c2ccccc2F)c1 [Compound 24]	–	–	–	–	–	–	–	–	Test E rating (% disease control) (Alternaria solani; [4]): 76%; Test C rating (% disease control) (Septoria tritici; [4]): 97%; Test H rating (% disease control) (Plasmopara viticola; [4]): 0%; Test F rating (% disease control) (Botrytis cinerea; [4]): 99%; Test D rating (% disease control) (Septoria nodorum; [4]): 0%; Test G rating (% disease control) (Rhizoctonia oryzae; [4]): 0%; Test A rating (% disease control) [1, 4]: 91%; Test B rating (% disease control) [2, 4]: 95%
CCOC(=O)c1cnc(CC)c(-c2ccccc2)c1-c1cc(OC)cc(OC)c1 [Compound 31]	0	80	0	41	0	0	0	0	–
COc1cc(OC)cc(-c2c(-c3ccccc3F)cnc(C)c2-c2ccccc2)c1 [Compound 32]	59	99	0	99	0	99	98	96	–
COc1cc(OC)cc(-c2c(-c3ccccc3)cnc(C)c2-c2ccc(F)cc2)c1 [Compound 34, 4-(3,5-dimethoxyphenyl)-3-(4-fluorophenyl)-5-phenyl-2-methylpyridine]	–	–	–	–	–	–	–	–	pest or weed control at 200 ppm (Alternaria solani; [3]): 96%; pest or weed control at 200 ppm (Septoria tritici; [3]): 100%; pest or weed control at 200 ppm (Plasmopara viticola; [3]): 0%; pest or weed control at 200 ppm (Botrytis cinerea; [3]): 99%; pest or weed control at 200 ppm (Septoria nodorum; [3]): 77%; pest or weed control at 200 ppm (Rhizoctonia oryzae; [3]): 63%; pest or weed control at 200 ppm [1, 3]: 96%; pest or weed control at 200 ppm [2, 3]: 96%
